# System: IRP1
# Experiment: IRP1 expression in treated cells
# Format: cell-based, human
# Text: The inventors next tested the effect of hypoxia on the binding of IRP1 to the HIF-2a wild-type IRE. […] This is due to decreased mRNA binding, as western blots confirm that neither compound application nor hypoxia affects IRP1 protein expression. The involvement of IRP1 was further confirmed with super-shifting experiments with IRP1 antibody (FIG. 7C). No supershifted bands were observed using IRP2 antibody.
# However, IRP2 contributes very little—if at all—to the total IRP bound to the HIF2a IRE (Zimmer et al., 2008).
compound,measurement,value
"CCCCC/C=C/C=C1/C(=O)C=C[C@@H]1C/C=C\CCCC(=O)O [PGJ2, 15-deoxy-Δ^12,14-prostaglandin J2]",IRP1 expression,not affected

# Reference: US10881656B2, “HIF inhibitors and use thereof” (The General Hospital Corporation, priority 2008, dated 2021)
